The conditions of series [1]: general statement, no test described; cited from earlier work.
Series [2] is described as follows: In vitro release testing (IVRT), static vertical diffusion cell, synthetic membrane, UV-VIS analysis. The format is physicochemical. The note with it: petrolatum ointment with 0.5% loteprednol etabonate and 0.3% tobramycin sulfate; 1-octanol:1-hexanol:water 25:25:50 v:v:v. How it is done: In Vitro Release Testing Method.
Release of pharmaceutically active compounds from semi-solid dosage forms was evaluated in an in vitro model of static vertical diffusion cell using a synthetic membrane model. […] The samples were analyzed using a UV-VIS spectrometer. […]
Test time points: 0, 2, 4, 6, 8, and 10 hours. Each test was conducted in four replicates (N=4). Square root of test time points: 0, 1.41, 2.00, 2.45, 2.83, and 3.16.
Membrane: Polypropylene (pore size: 0.45 micron).
Static vertical diffusion cell parameters: Area of the membrane diffusion area: 0.95 square centimeters.
Dosing level: infinite dose at about 3.0 milliliter of the semi-solid dosage form.
Static vertical diffusion cell consists of a donor and receptor compartment separated by a synthetic membrane. The dosing compartment was for the dosed semi-solid dosage form. […] Before dosing, the diffusion cell was pre-incubated at 32° C. for about 20 to 45 minutes. The t=0 samples were taken after the incubation period prior to dosing.
During the experiment, the receptor fluid was in intimate contact with the membrane through a mixing mechanism, such as, e.g., magnetic stirring bar, or orbit shaker, and maintained at 32° C. using a heating mechanism, such as, e.g., dry heat block, or circulating water bath. At each time point, entire content of the receptor fluid was collected and replaced with a fresh batch pre-incubated at 32° C.
An ointment dosage form was prepared as an example of the semi-solid dosage form. Petrolatum was heated to about 50 to 70° C. while mixing. Xylene Cyanol was added to the heated petrolatum while heating and mixing. The mixture was mixed until uniform. Then, the mixture was slowly cooled to room temperature while mixing to yield the ointment formulation.

For the compound Tobramycin sulfate, the solubility in water entry in series [1] was “freely soluble”.

Turning to `CCOC(=O)O[C@]1(C(=O)OCCl)CC[C@H]2[C@@H]3CCC4=CC(=O)C=C[C@]4(C)[C@H]3[C@@H](O)C[C@@]21C` [loteprednol etabonate, Loteprednol etabonate], in series [2], the “phase of the biphasic receptor fluid in which the released compound is solubilized” value is given as “mostly solubilized in the organic 1-octanol/1-hexanol phase”.

Source of the values: patent publication US20180292376A1, “DIFFUSION CELL TESTING METHODS CONTAINING BIPHASIC RECEPTOR FLUIDS” (BUFFERAD Illinois Inc. d/b/a Zyleris PharmaTech, Inc., priority 2017, published 2018).
